Reference: PMC12030284, “Anti-Breast Cancer Properties and In Vivo Safety Profile of a Bis-Carbazole Derivative” (Pharmaceutics, 2025)
pIC50: −log10 of the molar value.

What was measured:
Bid = Bid immunofluorescence and mitochondria staining; type: cell-based, human; conditions: MDA-MB-231 cells, 0.3 µM, 24 h
Method: (§1) Cells grown on glass coverslips in full medium were serum-deprived for 24 h and exposed to 1 for 24 h at its IC50 value concentration. Cells were PBS-washed and fixed (cold methanol, 15 min, −20 °C), then primary antibody in blocking solution was added (4 °C/overnight), as described. The mouse anti-Bid (sc-373939) and anti-β-Actin (69879) and the rabbit anti-β Tubulin (9104) were obtained from Santa Cruz Biotechnology and employed at a 1:100 dilution. Coverslips were washed thrice with PBS, then the secondary antibody Alexa Fluor® 568 conjugate goat-anti-mouse and Alexa Fluor® 488 conjugate goat-anti-rabbit (1:500, Thermo Fisher Scientific, Waltham, MA, USA) was added. Nuclei were DAPI (Sigma Aldrich, Mila, Italy) stained (10 min, 0.2 μg/mL) and PBS washed thrice. For mitochondrial staining, cells were pre-incubated with prewarmed (37 °C) MitoTracker® Deep Red FM probe solution (MitoTracker® Mitochondrion-Selective Probes, Invitrogen European Headquarters, Paisley PA4 9RF, UK) for 20 min (fluorescence excitation = 644, fluorescence emission = 665). A fluorescence microscope (Leica DM 6000) and LAS-X software (Leica Application Suite X, 3.5.7.23225) were used to acquire and process all images.

[1] = tested on: MCF-10A human mammary epithelial cells; assay: MTT cell viability assay, MCF-10A; type: cell-based; conditions: 72 h, normal cells, mean ± SD of three experiments
Method: The three cell lines adopted in this work (MCF-7, MDA-MB-231 and MCF-10A) were obtained from the American Type Culture Collection (ATCC, Manassas, VA, USA). MCF-7 human breast cancer cells were cultured in Dulbecco’s modified Eagle’s medium/nutrient mixture Ham F-12 (DMEM/F12), added with 10% fetal bovine serum (FBS) and 100 U mL^−1 penicillin/streptomycin. MDA-MB-231 human breast cancer cells were maintained in DMEM/F12 added with 5% FBS, 1% L-glutamine and 100 U mL^−1 penicillin/streptomycin. MCF-10A human mammary epithelial cells were cultured in DMEM/F12 medium added with 5% horse serum (HS, Thermo Fisher Scientific, Milan, Italy), 100 U mL^−1 penicillin/streptomycin, 0.5 mg mL^−1 hydrocortisone, 20 ng mL^−1 human epidermal growth factor (hEGF), 10 mg mL^−1 insulin, and 0.1 mg mL^−1 cholera enterotoxin (Sigma–Aldrich, Milan, Italy). Cells were cultured at 37 °C in a humidified atmosphere (95% air and 5% CO2) and periodically screened for checking contamination.
The 3-(4,5-dimethylthiazol-2-y1)-2,5-diphenyltetrazolium Bromide (MTT, Sigma–Aldrich, Milan, Italy) assay was used for determining cell viability. Cells were seeded on forty-eight well plates and cultured in a complete medium. Next, cells were serum-deprived (24 h). Then, cells were exposed to the tested compounds in phenol-red-free medium added with 1% of serum for 72 h. After medium removal, MTT solution was added to each well (0.5 mg/mL) and incubated at 37 °C (2 h). Cells were lysed (DMSO), and the optical density was measured (570 nm) using a microplate reader. Mean absorbance was reported as a percentage versus control, and IC50 values were calculated using GraphPad Prism 8 software (version 8.4.3., GraphPad Inc., San Diego, CA, USA). The selectivity index was obtained by the ratio of IC50 values calculated for normal and cancer cells. Data represent three independent experiments; standard deviations (SD) were reported.

[2] = tested on: actin network in MDA-MB-231 cells; assay: β-actin immunofluorescence; type: cell-based, human; conditions: 0.3 µM, 24 h
Method: as §1

tubulin = assay: In vitro tubulin polymerization assay; type: biochemical; conditions: 1 µM
Method: The tubulin polymerization inhibition was detected using the in vitro Tubulin Polymerization Assay Kit (EMD Millipore Corporation, Burlington, MA, USA), following the procedure previously published. Briefly, polymerization reactions were performed in 70 µL final volumes (60 µL of the 60 µM tubulin in 1xPB-GTP and 10 µL of the test substance dissolved in 1xPB-GTP). Paclitaxel and Vinblastine (both at 10 µM) and 1 (1 µM) were dissolved in DMSO. The turbidity variation was measured every 30 s at 350 nm for 90 min. Turbidity (absorbance) readings were used to determine the extent of polymerization [% inhibition = (1 − A350 sample/A350 control) × 100].

MDA-MB-231 cells = assay: TUNEL assay (nuclear DNA damage / apoptosis); type: cell-based, human; conditions: 0.3 µM, 24 h
Method: The TUNEL assay was used for apoptosis detection, according to the manufacturer’s instructions (CF^TM488A TUNEL Assay Apoptosis Detection Kit, Biotium, Hayward, CA, USA), with some modifications (ref). Shortly, cells were grown on glass coverslips, then treated with 1 at its IC50 value. After that, they were PBS washed thrice, then methanol-fixed (−20 °C, 15 min). Cells were fixed and incubated with the enzyme and, next, counterstained with DAPI (0.2 mg mL^−1) (10 min, room temperature). Cells were washed three times with cold PBS; the mounting solution was added and observed and imaged using a fluorescence microscope (Leica DM6000, Leica Microsystems Srl, Milan, I-20090, Italy; 20× magnification) with excitation/emission wavelength maxima of 490 nm/515 nm (CF^TM488A) or 350 nm/460 nm (DAPI). Images represent two independent experiments, and representative fields were shown.

caspase-3/7 = assay: Caspase-Glo 3/7 assay; type: cell-based, human; conditions: MDA-MB-231 cells, 0.3 µM, 24 h, versus DMSO-treated cells
Method: Caspases-3/7, -8, and -9 activities were determined using the Caspase-Glo® 3/7, 8, and 9 Assay Systems (Promega Corporation, Madison, WI, USA) as previously described.

In the case of Cc1cc(C=NN=Cc2cc(C)c3[nH]c4ccc(Br)cc4c3c2C)c(C)c2c1[nH]c1ccc(Br)cc12 [Compound 1, N,N’-bis-(6-bromo-1,4-dimethyl-9H-carbazol-3-ylmethylene)-hydrazine], the Bid localization (Bid) was “net translocation of Bid into the mitochondrial compartment”, the pIC50 [1] was < 4.00 and the actin network morphology [2] was “formation of thicker actin bundles”. For the same molecule, the “effect on tubulin polymerization reaction” value (tubulin) was “acts as a microtubule stabilizer”, the “final OD350 value of tubulin polymerization” value (tubulin; control reaction (DMSO) about 0.41) was 0.48 and the “TUNEL staining (nuclear DNA damage)” value (MDA-MB-231 cells) was “TUNEL-positive”. The “increase of caspase-3 and -7 activity” value (caspase-3/7) was “about 70%”.
